Our source for the IC50 values is patent publication US20070142437A1, “CHEMICAL COMPOUNDS” (priority 2005, published 2007).

pIC50: −log10 of the molar value.

In the experiment the test system is HUVEC cells. The experiment can be described thus: Human Umbilical Vein Endothelial Cell (HUVEC) proliferation assay (BrdU incorporation). It counts as cell-based. As to conditions: growth stimulated with VEGF, 72 hrs, read-out: Inhibition of HUVEC proliferation IC50. The procedure: Human Umbilical Vein Endothelial Cell (HUVEC) Proliferation Assay (BrdU Incorporation) Materials
HUVEC cells and EGM-MV (Endothelial cell growth medium—microvascular) were purchased from Clonetics (San Diego, Calif.). VEGF and bFGF were purchased from R&D Systems (Minneapolis, Minn.). Anti-BrdU antibody was obtained from Chemicon International (Temecula, Calif.).
HUVECs were routinely maintained in EGM-MV medium and were used within passage 7. HUVECs were plated at a density of 2500 cells/well in M199 medium containing 5% FBS (Hyclone) in type I collagen coated plate (Becton Dickinson). The plate was incubated at 37° C. overnight. The medium was removed by aspiration, and test compounds were added to each well in a volume of 0.1 ml/well in serum-free M199 medium. Compound concentrations ranged from 1.5 nM to 30 micromolar. The plate was incubated for 30 min at 37° C. Another 0.1 ml of serum-free M199 medium containing BSA and VEGF (or bFGF) was added to give a final concentration of 0.1% BSA and 10 ng/ml VEGF (0.3 ng/ml bFGF). The plate was incubated at 37° C. for 72 hrs. BrdU was added to each well after the first 48 hrs to give a concentration of 10 micromolar. The colorimetric ELISA assay was performed according to manufacturer's (Roche Molecular Sciences) instructions, with detection by absorbance reading at 450 nm. Results were plotted as concentration of test compound vs. absorbance to give an IC50 value for inhibition of BrdU incorporation.
A general note: Uptake of a labelled nucleoside into DNA is a usual measure of proliferation.
As for `CNS(=O)(=O)Cc1ccc(Nc2ncc(-c3ccccc3)o2)cc1` [Example 51, N-methyl-1-{4-[(5-phenyl-1,3-oxazol-2-yl)amino]phenyl}methanesulfonamide], the pIC50 was > 6.00. As to `CCS(=O)(=O)c1ccc(OC)c(Nc2ncc(-c3ccccc3)o2)c1` [Example 56, N-[5-(ethylsulfonyl)-2-methoxyphenyl]-5-phenyl-1,3-oxazol-2-amine], the pIC50 is > 6.30. Then `COc1ccc(S(=O)(=O)N(C)C)cc1Nc1ncc(-c2ccc(F)cc2)o1` [Example 70, 3-{[5-(4-fluorophenyl)-1,3-oxazol-2-yl]amino}-4-methoxy-N,N-dimethylbenzenesulfonamide], with > 6.30; and `COc1cc(Nc2ncc(-c3ccccc3)o2)cc(OC)c1OC` [Example 74, 5-phenyl-N-(3,4,5-trimethoxyphenyl)-1,3-oxazol-2-amine], with > 6.30. The same measure for `COc1ccc(CS(C)(=O)=O)cc1Nc1ncc(-c2ccc(F)cc2)o1` [Example 82, 5-(4-fluorophenyl)-N-{2-methoxy-5-[(methylsulfonyl)methyl]phenyl}-1,3-oxazol-2-amine]: > 6.00; for `COc1ccc(S(=O)(=O)NCc2ccccn2)cc1Nc1ncc(-c2ccc(F)cc2)o1` [Example 86, 3-{[5-(4-fluorophenyl)-1,3-oxazol-2-yl]amino}-4-methoxy-N-(pyridin-2-ylmethyl)benzenesulfonamide]: > 6.30. The same measure for `COc1ccc(S(N)(=O)=O)cc1Nc1ncc(-c2ccc(F)cc2)o1` [Example 89, 3-{[5-(4-fluorophenyl)-1,3-oxazol-2-yl]amino}-4-methoxybenzenesulfonamide]: > 6.00.

On to `CCC(CC)S(=O)(=O)c1ccc(OC)c(Nc2ncc(-c3ccc(F)cc3)o2)c1` [Example 90, N-{5-[(1-ethylpropyl)sulfonyl]-2-methoxyphenyl}-5-(4-fluorophenyl)-1,3-oxazol-2-amine], for which the pIC50 was > 6.00. Turning to `COc1ccc(S(=O)(=O)CC(C)C)cc1Nc1ncc(-c2ccc(F)cc2)o1` [Example 93, 5-(4-fluorophenyl)-N-[5-(isobutylsulfonyl)-2-methoxyphenyl]-1,3-oxazol-2-amine], the pIC50 is > 6.00. With `COc1ccc(S(=O)(=O)CC2CCCO2)cc1Nc1ncc(-c2ccc(F)cc2)o1` (stereo not drawn) [Example 94, 5-(4-fluorophenyl)-N-{2-methoxy-5-[(tetrahydrofuran-2-ylmethyl)sulfonyl]phenyl}-1,3-oxazol-2-amine], the pIC50 was > 6.00. Take `COc1ccc(S(=O)(=O)C2CCOC2)cc1Nc1ncc(-c2ccc(F)cc2)o1` (stereo not drawn) [Example 95, 5-(4-fluorophenyl)-N-[2-methoxy-5-(tetrahydrofuran-3-ylsulfonyl)phenyl]-1,3-oxazol-2-amine]: the pIC50 was > 6.00. The same measure for `COc1ccc(S(=O)(=O)C(C)C)cc1Nc1ncc(-c2ccc(F)cc2)o1` [Example 97, 5-(4-fluorophenyl)-N-[5-(isopropylsulfonyl)-2-methoxyphenyl]-1,3-oxazol-2-amine]: > 6.30; for `CCS(=O)(=O)c1ccc(OC)c(Nc2ncc(-c3cccc(Br)c3)o2)c1` [Example 100, 5-(3-bromophenyl)-N-[5-(ethylsulfonyl)-2-methoxyphenyl]-1,3-oxazol-2-amine]: > 6.00; for `CCS(=O)(=O)c1ccc(OC)c(Nc2ncc(-c3ccc(F)cc3)o2)c1` [Example 109, N-[5-(ethylsulfonyl)-2-methoxyphenyl]-5-(4-fluorophenyl)-1,3-oxazol-2-amine]: > 6.30. Regarding `CCS(=O)(=O)c1ccc(OC)c(Nc2ncc(-c3ccc(F)c(F)c3)o2)c1` [Example 110, 5-(3,4-difluorophenyl)-N-[5-(ethylsulfonyl)-2-methoxyphenyl]-1,3-oxazol-2-amine], the pIC50 is > 6.00. The same measure for `COc1cc(Nc2ncc(-c3ccc(F)cc3)o2)cc(OC)c1OC` [Example 116, 5-(4-fluorophenyl)-N-(3,4,5-trimethoxyphenyl)-1,3-oxazol-2-amine]: > 6.00.

For `COc1ccc(S(=O)(=O)NCc2ccncc2)cc1Nc1ncc(-c2ccc(F)cc2)o1` [Example 122, 3-{[5-(4-fluorophenyl)-1,3-oxazol-2-yl]amino}-4-methoxy-N-(pyridin-4-ylmethyl)benzenesulfonamide], the pIC50 is > 6.00. With `COc1ccc(S(=O)(=O)NC(C)C)cc1Nc1ncc(-c2ccc(F)cc2)o1` [Example 123, 3-{[5-(4-fluorophenyl)-1,3-oxazol-2-yl]amino}-N-isopropyl-4-methoxybenzenesulfonamide], the pIC50 was > 6.00.

Take `COc1ccc(S(=O)(=O)NCC2CCCO2)cc1Nc1ncc(-c2ccc(F)cc2)o1` (stereo not drawn) [Example 124, 3-{[5-(4-fluorophenyl)-1,3-oxazol-2-yl]amino}-4-methoxy-N-(tetrahydrofuran-2-ylmethyl)benzenesulfonamide]: the pIC50 was > 6.00. For the compound `COCCCNS(=O)(=O)c1ccc(OC)c(Nc2ncc(-c3ccc(F)cc3)o2)c1` [Example 129, 3-{[5-(4-fluorophenyl)-1,3-oxazol-2-yl]amino}-4-methoxy-N-(3-methoxypropyl)benzenesulfonamide], the pIC50 is > 6.00.

As for `CNS(=O)(=O)c1ccc(OC)c(Nc2ncc(-c3ccc(F)cc3)o2)c1` [Example 130, 3-{[5-(4-fluorophenyl)-1,3-oxazol-2-yl]amino}-4-methoxy-N-methylbenzenesulfonamide], the pIC50 is > 6.00. Then `CCS(=O)(=O)c1ccc(OC)c(Nc2ncc(-c3ccc(Cl)cc3)o2)c1` [Example 132, 5-(4-chlorophenyl)-N-[5-(ethylsulfonyl)-2-methoxyphenyl]-1,3-oxazol-2-amine], with > 6.00. `CCS(=O)(=O)c1ccc(OC)c(Nc2ncc(-c3ccc(C#N)cc3)o2)c1` [Example 133, 4-(2-{[5-(ethylsulfonyl)-2-methoxyphenyl]amino}-1,3-oxazol-5-yl)benzonitrile]: the pIC50 was > 6.30. As for `CCS(=O)(=O)c1ccc(OC)c(Nc2ncc(-c3ccc(C(N)=O)cc3)o2)c1` [Example 134], the pIC50 was > 6.30. The same measure for `CCS(=O)(=O)c1ccc(OC)c(Nc2ncc(-c3cccc(Cl)c3)o2)c1` [Example 137, 5-(3-chlorophenyl)-N-[5-(ethylsulfonyl)-2-methoxyphenyl]-1,3-oxazol-2-amine]: > 6.00; for `CCS(=O)(=O)c1ccc(OC)c(Nc2ncc(-c3cccc(F)c3)o2)c1` [Example 141, N-[5-(ethylsulfonyl)-2-methoxyphenyl]-5-(3-fluorophenyl)-1,3-oxazol-2-amine]: > 6.30; for `CCS(=O)(=O)c1ccc(OC)c(Nc2ncc(-c3ccc4c(c3)OCCO4)o2)c1` [Example 148, 5-(Z,3-dihydro-1,4-benzodioxin-6-yl)-N-[5-(ethylsulfonyl)-2-methoxyphenyl]-1,3-oxazol-2-amine]: > 6.00. Take `CCS(=O)(=O)c1ccc(OC)c(Nc2ncc(-c3ccc4c(c3)OCCCO4)o2)c1` [Example 153, 5-(3,4-dihydro-2H-1,5-benzodioxepin-7-yl)-N-[5-(ethylsulfonyl)-2-methoxyphenyl]-1,3-oxazol-2-amine]: the pIC50 was > 6.00. Consider `CCS(=O)(=O)c1ccc(OC)c(Nc2ncc(-c3cccc(O)c3)o2)c1` [Example 158], for which the pIC50 is > 6.00. Then `CCS(=O)(=O)c1ccc(OC)c(Nc2ncc(-c3cccc(OCc4cccc(OC)c4OC)c3)o2)c1` [Example 165, 5-{3-[(2,3-dimethoxybenzyl)oxy]phenyl}-N-[5-(ethylsulfonyl)-2-methoxyphenyl]-1,3-oxazol-2-amine], with > 6.00; and `CCS(=O)(=O)c1ccc(OC)c(Nc2ncc(-c3cccc(OC(C)c4ccncc4)c3)o2)c1` (stereo not drawn) [Example 166, N-[5-(ethylsulfonyl)-2-methoxyphenyl]-5-[3-(1-pyridin-4-ylethoxy)phenyl]-1,3-oxazol-2-amine], with > 6.00; and `CCS(=O)(=O)c1ccc(OC)c(Nc2ncc(-c3cccc(OC4CCOC4)c3)o2)c1` (stereo not drawn) [Example 167, N-[5-(ethylsulfonyl)-2-methoxyphenyl]-5-[3-(tetrahydrofuran-3-yloxy)phenyl]-1,3-oxazol-2-amine], with > 6.00. The same measure for `CCS(=O)(=O)c1ccc(OC)c(Nc2ncc(-c3cccc(-c4cccs4)c3)o2)c1` [Example 172, N-[5-(ethylsulfonyl)-2-methoxyphenyl]-5-(3-thien-2-ylphenyl)-1,3-oxazol-2-amine]: > 6.30; for `CCS(=O)(=O)c1ccc(OC)c(Nc2ncc(-c3cccc(-c4ccsc4)c3)o2)c1` [Example 173, N-[5-(ethylsulfonyl)-2-methoxyphenyl]-5-(3-thien-3-ylphenyl)-1,3-oxazol-2-amine]: > 6.30.

Turning to `CCS(=O)(=O)c1ccc(OC)c(Nc2ncc(-c3cccc(-c4cccnc4)c3)o2)c1` [Example 174, N-[5-(ethylsulfonyl)-2-methoxyphenyl]-5-(3-pyridin-3-ylphenyl)-1,3-oxazol-2-amine], the pIC50 was > 6.00. Take `C=Cc1cccc(-c2cnc(Nc3cc(S(=O)(=O)CC)ccc3OC)o2)c1` [Example 175, N-[5-(ethylsulfonyl)-2-methoxyphenyl]-5-(3-vinylphenyl)-1,3-oxazol-2-amine]: the pIC50 was > 6.00.
